Laboratory results reported in US9464215B2, “Use of a ketal as a solvent in adhesives and ketal-containing adhesive composition” (OXITENO S.A. INDÚSTRIA E COMÉRCIO, priority 2012, dated 2016).
≈ marks a conversion by molar mass, not a printed value.

Key:
[1] = Water solubility; type: physicochemical; details: heading: Water solubility
[2] = Solubilization and gel formation of 2 wt% polychloroprene solution; type: physicochemical; details: 2% by weight of polymer, rest for 24 hours
Experimental: A polychloroprene solution was prepared in 2-methyl-2-ethyl-1,3-dioxolane at a concentration of 2% by weight of the polymer, which was allowed to rest for 24 hours. […] Gel formation usually takes place by using toluene or an aromatic hydrocarbon solvent, and was not expected in the case of oxygenated solvents, such as 2-methyl-2-ethyl-1,3-dioxolane.

[3] = system: rat; details: cited from earlier work
[4] = system: rabbit; details: cited from earlier work
[5] = system: rat; details: 4 hours of exposure; cited from earlier work
[6] = system: rabbit; details: 24 hours of exposure; cited from earlier work
[7] = system: rabbit; details: 24 hours of exposure; cited from earlier work; remark: listed apart in the source
[8] = IARC, NTP, OSHA, ACGIH; cited from earlier work

In the case of `CCC1(C)OCCO1` [2-methyl-2-ethyl-1,3-dioxolane], the solubility [1] is given as 3260 µg/mL (≈ 28.1 mM), the Gel formation [2] is given as “formation of a gel was seen” and the “LD50 (oral rat)” value [3] is given as 2,830 μL/kg. For the same compound, the “DL50 (dermal rabbit)” value [4] was 10 mL/kg, the “LCLo/4 H (inhalation rat)” value [5] was 4,000 ppm/4 H and the “LCLo/24 H (skin rash - rabbit)” value [6] was 500 mg/24 H. The “LCLo/24H (eye irritation - rabbit)” value [7] was 500 mg/24 H and the Carcinogenicity listing [8] was “not listed as carcinogenic”.
